# Test results from patent US20120136033A1, “Small Molecule Antagonists of Phosphatidylinositol-3,4,5-Triphosphate (PIP3) and Uses Thereof” (President and Fellows of Harvard College, priority 2009, published 2012).
# Experiments:
# Btk PH domain = molecular target: T1, Btk PH domain (Homo sapiens, UniProt Q06187); test: PH domain translocation assay, GFP-fused Btk PH domain; format: cell-based; conditions: 100 μM, 2 hr, PDGF stimulation
# T1 construct: Btk PH domain-GFP vector was purchased from Signagen Laboratories
# Description: Cells were transfected with the corresponding GFP-fusion vectors, serum starved overnight, and incubated with 100 μM PITs or PIT-1is for 2 hr, followed by stimulation with 100 ng/ml PDGF or 250 ng/ml PMA for 5 min. The translocation was analyzed using fluorescent microscope and was quantitated by counting the number of cells with translocated PH domains in five random fields.
# (§1) To begin characterizing cellular activity of PITs, a PH domain translocation assay was performed, measuring PIP3-induced association of GFP-fused PH domains with the plasma membrane. This method provides useful means for monitoring status of the PH domain/PIP3 binding in the intact cells. Varnai P et al. (1999) J Biol Chem 274:10983-9. Several PH-domain-containing proteins, which are known to bind PIP3 specifically and efficiently, were examined. […] Oikawa T et al. (2004) Nat Cell Biol 6:420-6.
# WAVE2 = molecular target: T2, WAVE2 (Homo sapiens, UniProt Q9Y6W5); test: plasma membrane translocation assay, WAVE2-GFP; format: cell-based
# T2 construct: expressed in transfected cells; host or cells: SUM159
# Description: as §1
# [1] = test system: SV40-transformed mouse adult lung fibroblasts; test: loss of viability, Akt1-expressing vs Akt1-3 triple knockout lung fibroblasts; format: cell-based; conditions: P<0.01
# Description: Shaughnessy J D (2008) Nature 454:172-3; Weinstein I G (2002) Science 297:63-4. Therefore, the possibility that PIT-1 may cause preferential cell death in the cells containing elevated PIP3 levels was examined. […] Li D M et al. (1998) Proc Natl Acad Sci USA 95:15406-11. […] This observation is consistent with the notion that PTEN-deficient cancer cells become overly dependent on PIP3 signaling and, therefore, are hypersensitive to disruption of this pathway compared to wild-type PTEN-expressing cells. Neshat M S et al. (2001) Proc Natl Acad Sci USA 98:10314-9.
# [2] = test system: SUM159 cells transfected with VAV2 or WAVE2; test: wound healing migration of VAV- or WAVE-overexpressing SUM159 cells; format: cell-based, human; conditions: 100 μM, PDGF, 8 hr
# Description: SUM159 cells were transfected with VAV2 or WAVE2. Scratch wound was generated in cell monolayer, followed by treatment with PIT-1 (100 μM) in the presence of PDGF (100 ng/ml) stimulation for 8 hr. The inhibitory effect of PITs on VAV- or WAVE-induced cell migration was calculated according to the width of wound. The width of wounded cell monolayers was measured in five random fields.
# HUVEC [3] = test: endothelial tube formation assay on Matrigel; format: cell-based, human
# Description: The tube formation assay was performed in 96-well plates. Wells were pre-coated with 70 μl of the Matrigel basement membrane matrix (BD Biosciences) per well for 1 hr at 37° C. HUVEC were suspended in serum-free M199 medium and plated on Matrigel at a density of 2×10^4 cells per well. PIT-1 was added at indicated concentrations (3.125-100 μM). After an 8 hr incubation at 37° C., phase-contrast images of the endothelial tubes were obtained using a Nikon TE2000 microscope, and tube formation was assessed by counting the number of closed tubes in five random fields from each well.
# HUVEC [4] = test: HUVEC migration, wound healing and transwell assays; format: cell-based, human
# Description: Two models of cell migration were used, a transwell migration model and a wound closure model. Migration of cancer and endothelial cells was evaluated using 24-transwell Boyden chamber (Costar, Bedford, Mass.) with a polystyrene membrane (6.5 mm diameter, 10 μm thickness, and 8 μm pore size). Cells were suspended in serum-free media and seeded in the upper compartment of each well (2×10^4 cells/well) in the presence or absence of different compounds at the indicated concentrations. The lower compartment contained 600 μl of serum-free culture media supplemented with growth factors. After an 8-hr incubation at 37° C., cells were fixed and stained with 0.1% crystal violet. Non-migrating cells on the upper surface of the filter were removed, and the stained cells that migrated to the lower side were photographed using a phase-contrast microscope (Nikon, Japan) in five random fields. The cells were lysed with 10% acetic acid, and colorimetric determination was made at 595 nm using Wallac Victor 3 plate reader.
# Cancer or endothelial cells were seeded into fibronectin-coated 96-well plates (2×10^4 cells/well). […]
# Second, HUVEC were serum starved and treated with PITs (25, 50 100 μM) or PIT-1is (100 μM) for 8 hr, followed by bFGF (10 ng/ml) stimulation for 15 min. […] The number of cell ruffles/lamellipodia was counted in five random fields.
# PI3K-PDK1-Akt pathway = PI3K-PDK1-Akt pathway phosphorylation events in U87MG cells; format: cell-based, human
# Description: The effect of PIT-1 on PIP3-mediated signaling was examined in U87MG glioblastoma cells, which show elevated basal levels of PIP3 due to the loss of PTEN. Pore N et al. (2003) Cancer Res 63:236-41.
# T1 sequence (Q06187 3-133 limits assumed): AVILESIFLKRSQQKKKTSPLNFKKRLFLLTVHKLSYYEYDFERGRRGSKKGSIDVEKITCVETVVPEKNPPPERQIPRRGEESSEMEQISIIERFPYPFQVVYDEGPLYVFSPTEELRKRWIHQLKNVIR
# T2 sequence (Q9Y6W5 whole entry, species assumed): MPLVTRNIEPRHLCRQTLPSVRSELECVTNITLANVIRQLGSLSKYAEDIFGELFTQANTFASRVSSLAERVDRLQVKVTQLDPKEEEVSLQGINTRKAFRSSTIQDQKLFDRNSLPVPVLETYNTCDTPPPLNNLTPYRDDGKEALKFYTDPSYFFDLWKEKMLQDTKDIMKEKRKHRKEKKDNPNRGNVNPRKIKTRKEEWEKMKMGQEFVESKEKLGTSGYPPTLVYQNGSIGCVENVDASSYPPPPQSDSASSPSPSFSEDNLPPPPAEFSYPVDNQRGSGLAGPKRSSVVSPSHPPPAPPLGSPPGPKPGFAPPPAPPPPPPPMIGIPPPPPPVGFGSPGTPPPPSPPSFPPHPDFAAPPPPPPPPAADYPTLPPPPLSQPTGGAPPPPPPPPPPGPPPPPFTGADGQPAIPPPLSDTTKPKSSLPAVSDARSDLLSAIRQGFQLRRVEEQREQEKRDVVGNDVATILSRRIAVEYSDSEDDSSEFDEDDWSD
SMILES,inhibition of translocation of Btk PH domain to the plasma membrane (Btk PH domain),plasma membrane translocation of WAVE2 (WAVE2),loss of viability in Akt1-expressing fibroblasts compared to Akt1-3 triple knockout cells [1],inhibition of cell migration in VAV- and WAVE-overexpressing cells compared to control cells [2],"IC50 (HUVEC [3]; Homo sapiens, HUVEC on Matrigel, 8 hr, 3.125-100 μM, read-out: IC50, inhibition of tube formation) [µM]",migration of HUVEC cells (HUVEC [4]),activity of the PI3K-PDK1-Akt pathway in U87MG cells (PI3K-PDK1-Akt pathway),inhibition of tube formation (HUVEC [3])
O=C(NC(=S)Nc1cc([N+](=O)[O-])cc(Cl)c1O)c1ccccc1 [PIT-1],significantly inhibited,suppressed the plasma membrane translocation,more pronounced,larger degree of inhibition,7.75,efficiently blocked migration,suppressed activity,–
O=C1NC(=S)S/C1=C\c1cc(O)c([N+](=O)[O-])cc1Cc1ccccc1 [PIT-2],significantly inhibited,suppressed the plasma membrane translocation,more pronounced,larger degree of inhibition,–,efficiently blocked migration,suppressed activity,also observed
